Like-named read-outs stand apart in the source and are kept apart here.
Legend:
Format in all cases: biochemical
GST pi isoenzyme [1] = molecular target: T1, GST pi isoenzyme (Mus musculus, UniProt P19157); assay: Kinetic constants for inhibition of GST pi isoenzyme
T1 construct: The three major mouse liver GST isoenzymes were purified according to established methods; from tissue; host or cells: liver of male CD-1 mice
Protocol: Compounds 1 and 2 were synthesized and purified as described in Example 1, and GST pi isoenzyme was isolated from mouse liver as described in Example 2. Enzyme inhibition studies were performed as described in Example 3, except that four different concentrations of inhibitor were used. Enzyme assays were performed as described in Example 3.

GST pi isozyme [2] = molecular target: T2, GST pi isozyme (Mus musculus, UniProt P19157); assay: Irreversible inhibition of GST pi: activity after incubation and exhaustive dialysis; conditions: 10-fold excess of compound, 37° C., 3 hours, then dialysis against 6 changes of water
T2 construct: The three major mouse liver GST isoenzymes were purified according to established methods; from tissue; host or cells: liver of male CD-1 mice
T2 sequence (P19157 2-210 limits assumed): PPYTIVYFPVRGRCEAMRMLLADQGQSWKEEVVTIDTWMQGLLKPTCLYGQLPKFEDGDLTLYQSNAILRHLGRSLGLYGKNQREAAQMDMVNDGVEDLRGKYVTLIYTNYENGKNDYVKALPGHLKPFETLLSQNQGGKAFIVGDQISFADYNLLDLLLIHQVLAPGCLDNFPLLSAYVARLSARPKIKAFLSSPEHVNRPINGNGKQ
Protocol: The dialyzed protein sample was dried by lyophilization. The recovered protein was re-dissolved in water, and specific enzyme activity was determined by measuring the protein content and GST activity.

GST pi isozyme [3] = molecular target: T2, GST pi isozyme; assay: Time-dependent inhibition of GST pi with and without S-hexylglutathione; conditions: haloenol lactone 2 200 μM
Protocol: FIG. 7: Inactivation of glutathione S-transferase (GST) pi isozyme by haloenol lactone 2. The GST concentration was 1.0 μM): ●, control; ▴, +haloenol lactone 2 (200 μM), no S-hexylglutathione; ▪, +haloenol lactone 2 (200 μM), +S-hexylglutathione (2,000 μM).
Enzyme inhibition studies and enzyme assays for this experiment were performed as described in Example 3. S-hexylglutathione dissolved in a 0.1 M potassium phosphate buffer (pH 6.5) was added in the incubation solution. […] In this experiment, we incubated compound 2 with GST-pi isozyme in the presence of S-hexylglutathione (2,000 μM), a competitive inhibitor of GST. […] (See FIG. 7).

GST pi isoenzyme [4] = molecular target: T1, GST pi isoenzyme; assay: Time-dependent inhibition of purified GST pi isoenzyme (GSH/CDNB activity assay); conditions: for enzyme activity of GST pi: 100 μM compound, GST 1.0 μM, after 5 minutes at 37° C.; for nature of inhibitory effect on GST pi isozyme: summary statement
Protocol: (§1) The three major mouse liver GST isoenzymes were purified according to established methods. Male CD-1 mice, 25-35 g, were purchased from Charles River Breeding Laboratories, Inc. (Wilmington, Mass.). Animals were housed on autoclaved pine shavings in approved animal care facilities and fed ad libitum for 1 week prior to cervical dislocation.
Mice were killed by cervical dislocation and livers were removed, rinsed with ice-cold 10 mM Tris buffer (pH 7.4) containing 0.25 M sucrose, 1 mM EDTA and 1 mM DTT (buffer A). The tissues were homogenized in buffer A (1 g tissue/2 mL buffer). Centrifugation and all subsequent purification steps were carried out at 4° C. The homogenate was centrifuged at 10,000 g for 30 min. The supernatant fraction was then collected and centrifuged at 100,000 g for 80 min. Supernatant was next passed through a Sephadex G-25 Column (100 cm×2.5 cm) which had been pre-equilibrated in 25 mM potassium phosphate buffer (pH 7.4) containing 1 mM EDTA and 1 mM DTT (buffer B). Column eluants were monitored at 280 nm using an Isco-UA5 detector. The elutant from the G-25 column containing GST activity was applied to an affinity column (11 cm×2.5 cm, GSH-linked agarose, Sigma) at a flow rate of 0.64 ml/min. The first two GST isozymes were eluted using a linear gradient (0-75 mM) of GSH in buffer b (250 mL×250 mL). The third peak containing activity towards CDNB was eluted by using a linear gradient of increasing pH (7.4-9.0) in buffer b which was 75 mM in GSH (150 mL×150 mL). The three main peaks of activity were recovered and pooled separately. Each pool was concentrated to 25-30 mL in an Amicon ultrafiltration cell (Amicon, Inc., Beverly, Mass., USA) with a PM 10 membrane and dialyzed against 4L nanopure water. Pooled proteins were analyzed by ESI/MS to determine purity and subunit molecular weight. […]
(§2) For the enzyme inhibition studies, solutions of alpha, mu and pi glutathione S-transferase (1.0 μg/μl) were prepared in a 0.1 M potassium phosphate buffer (pH 6.5). […] Aliquots were withdrawn at 1, 3, 5, 8 and 12 min, and GST activity was measured using GSH and CDNB as substrates according to the method of Habig et al. (1974) J. Biol. Chem. 249:7130-7139.
In brief, the activity of the enzyme was determined in a 0.1 M potassium phosphate buffer (pH 6.5) containing 1 mM GSH and 1 mM CDNB using an extinction coefficient of 9.6 mM^−1 cm^−1. […] The rate of product formation was monitored by measuring the change in absorbance at 340 nm using a Shimadzu PC-2101 uv-visible spectrophotometer (Shimadzu Scientific Instruments, Columbia, Md., USA). Specific activities are based on protein concentrations as determined by the Bradford protein determination kit from Biorad, Hercules, Calif., USA, using bovine serum albumin as a reference.

GST mu = molecular target: T3, GST mu (Mus musculus, UniProt P10649); assay: Time-dependent inhibition of purified GST mu isoenzyme (GSH/CDNB activity assay); conditions: 100 μM compound, GST 1.0 μM, after 5 minutes at 37° C.
T3 construct: The three major mouse liver GST isoenzymes were purified according to established methods; from tissue; host or cells: liver of male CD-1 mice
T3 sequence (P10649 2-218 limits assumed): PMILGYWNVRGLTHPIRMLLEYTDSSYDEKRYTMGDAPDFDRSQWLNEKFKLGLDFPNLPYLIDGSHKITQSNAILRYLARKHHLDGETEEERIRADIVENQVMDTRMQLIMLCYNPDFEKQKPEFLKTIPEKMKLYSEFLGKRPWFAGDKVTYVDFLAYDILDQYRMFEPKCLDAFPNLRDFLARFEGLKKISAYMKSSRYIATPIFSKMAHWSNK
Protocol: as §1
(§3) Mice were killed by cervical dislocation and livers were removed, rinsed with ice-cold 10 mM Tris buffer (pH 7.4) containing 0.25 M sucrose, 1 mM EDTA and 1 mM DTT (buffer A). The tissues were homogenized in buffer A (1 g tissue/2 mL buffer). Centrifugation and all subsequent purification steps were carried out at 4° C. […] Column eluants were monitored at 280 nm using an Isco-UA5 detector. […] Pooled proteins were analyzed by ESI/MS to determine purity and subunit molecular weight. […]
as §2
(§4) In brief, the activity of the enzyme was determined in a 0.1 M potassium phosphate buffer (pH 6.5) containing 1 mM GSH and 1 mM CDNB using an extinction coefficient of 9.6 mM^−1 cm^−1. […]

GST alpha = molecular target: T4, GST alpha (Mus musculus, UniProt P30115); assay: Time-dependent inhibition of purified GST alpha isoenzyme (GSH/CDNB activity assay); conditions: 100 μM compound, GST 1.0 μM, after 5 minutes at 37° C.
T4 construct: The three major mouse liver GST isoenzymes were purified according to established methods; from tissue; host or cells: liver of male CD-1 mice
T4 sequence (P30115 2-221 limits assumed): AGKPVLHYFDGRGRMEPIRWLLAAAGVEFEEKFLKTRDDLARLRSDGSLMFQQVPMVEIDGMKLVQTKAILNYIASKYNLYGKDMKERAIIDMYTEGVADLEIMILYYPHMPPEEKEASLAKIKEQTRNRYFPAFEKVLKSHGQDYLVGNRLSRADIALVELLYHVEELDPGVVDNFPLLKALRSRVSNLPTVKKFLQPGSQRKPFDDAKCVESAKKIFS
Protocol: as §1, §3, §2, §4

[5] = GST pi 1.0 μM, 37° C., four inhibitor concentrations

T1 sequence (P19157 2-210 limits assumed): as the sequence (P19157 2-210 limits assumed) above

| Structure (SMILES) | Ki (GST pi isoenzyme [1]) [µM] | kinact (GST pi isoenzyme [1]; [5]) [s⁻¹] | kinact/KI (GST pi isoenzyme [1]; read-out: kinact/KI ratio) [M⁻¹ s⁻¹] | enzyme activity of modified GST remained relative to the control (GST pi isozyme [2]) [%] | restoration of GST activity by exhaustive dialysis (GST pi isozyme [2]) | time in which the enzyme was totally inactivated (GST pi isozyme [3]; GST 1.0 μM, no S-hexylglutathione) [min] | enzyme activity of GST pi (GST pi isoenzyme [4]) | nature of inhibitory effect on GST pi isozyme (GST pi isoenzyme [4]) | Ki (GST pi isoenzyme [1]; GST pi 1.0 μM, 37° C., four inhibitor concentrations, read-out: KI) [µM] | kinact/KI (GST pi isoenzyme [1]; GST pi, read-out: kinact/KI ratio (converted)) [M⁻¹ s⁻¹] | enzyme activity of GST mu remained (GST mu) | enzyme activity of GST alpha remained (GST alpha) | effect of S-hexylglutathione on time-dependent inhibition of GST by compound 2 (GST pi isozyme [3]; S-hexylglutathione 2,000 μM, GST pi 1.0 μM) |
| --- | --- | --- | --- | --- | --- | --- | --- | --- | --- | --- | --- | --- | --- |
| O=C1O/C(=C/Br)CC1CC=Cc1ccccc1 (stereo not shown) [compound 2, 3-Cinnamyl-5(E)-bromomethylidenetetrahydro-2-furanone] | 86.7 | 0.00933 | 108 | 7.8 | not restored | 8 | completely inhibited | time-dependent and irreversible | – | – | – | – | – |
| O=C1O/C(=C/Br)CC1CC1OC1c1ccccc1 (stereo not drawn) [compound 1, 3-Cinnamyl-(α,β-epoxy)-5(E)-bromomethylidenetetrahydro-2-furanone] | – | 0.0198 | – | – | – | – | completely inhibited | time-dependent and irreversible | 64.4 | 308 | about 80% | about 80% | – |
| CCCCCCSC[C@H](NC(=O)CC[C@H](N)C(=O)O)C(=O)NCC(=O)O [S-hexylglutathione, reference compound] | – | – | – | – | – | – | – | – | – | – | – | – | completely suppressed |
